Measurements as given in patent publication US20230414535A1, “PHARMACEUTICAL COMPOSITION COMPRISING UBIQUINONE-5 AND METHOD OF USE THEREOF” (The Trustees of Columbia University in the City of New York, priority 2021, published 2023).

Experiments:
[1] = test system: isolated forebrain mitochondria; test: Oligomycin-induced state 4 respiration and ΔΨm in isolated forebrain mitochondria; assay type: biochemical; conditions: for effect on GABA- or Ub5-induced respiration/leak: added after GABA or Ub5, picrotoxin 1 mM, PLP 10 mM
Method: Turning to FIGS. 10a and b, oligomycin-induced state 4 was initiated in isolated forebrain mitochondria using succinate. Tracings of O2 consumption (FIG. 10a) with simultaneous ΔΨm measurement (FIG. 10b) are depicted. Numbers (FIG. 10a) are rates of respiration (nmol·mL-1·min-1·mg mitochondrial protein-1). GABA (10 mM) or Ub5 ([…]) were added. Aralar was inhibited with pyridoxal 5′-phosphate (PLP)(10 mM). Picrotoxin (GABAA receptor antagonist (1 mM)) and GABA or Ub5 alone served as controls. Black solid lines are slopes of ΔΨm prior to and after inhibitor. Decrease in respiration rate with concomitant stabilization or rise in ΔΨm indicates inhibition of leak. […] Thus, PLP blocked GABA import via Aralar. […] Aralar is best described as an aspartate-glutamate carrier within mitochondria. Aralar is the solute that exports aspartate from neuronal mitochondria in exchange for glutamate plus a proton. Thus, Aralar causes leak by translocating protons across the inner mitochondrial membrane during solute transport. Aralar causes leak that can degrade ΔΨm. Aralar is a neuronal transporter that sequesters GABA within the mitochondrial matrix. Many anesthetic agents bind to the GABAA receptor and potentiate GABAergic signaling.

[2] = test system: isolated perfused murine hearts; test: Surface ECG of isolated perfused murine hearts; conditions: isolated perfused heart
Method: In FIGS. 2a and 2b, surface ECGs were recorded continuously for isolated perfused murine hearts that were prepared and stabilized. Hearts were exposed to either decylubiquinone or ubiquione-5. […] Thus, quinone analogs suppressed electrical signaling in the heart in a reversible manner.

isolated mitochondria = test: Complex II-dependent state 4 (leak) respiration with simultaneous mitochondrial membrane potential measurement; assay type: biochemical; conditions: succinate in the presence of oligomycin, FIG. 1
Source text: FIGS. 1a-c are representative tracings of complex II-dependent state 4 respiration (leak respiration) using succinate in the presence of oligomycin are depicted above and tracings of simultaneously measured mitochondrial membrane potential (ΔΨ) are shown below, for (a) propofol, (b) decylubiquinone, and (c) ubiquinone-5;
In FIG. 1, representative tracings of Complex II-dependent state 4 respiration (leak respiration) using succinate in the presence of oligomycin are depicted in the top three curves and tracings of simultaneously measured mitochondrial membrane potential (ΔΨ) are shown in the bottom three curves. The numbers in the tracings above show rates of oxygen consumption (nmol·mL-1·min-1·mg mitochondrial protein-1). Addition of propofol (FIG. 1 a) decylubiquinone (DB) (FIG. 1b) or ubiquinone-5 (FIG. 1c) are indicated. ΔΨ was determined as a function of triphenylphosphonium (TPP+) concentration in the bath. […] This mechanism is highly reminiscent of the effect of the anesthetic, propofol (FIG. 1a), in isolated mitochondria.

Molecule: NCCCC(=O)O [GABA]
- proton leak (respiration and ΔΨm) ([1]; succinate, oligomycin-induced state 4, GABA (10 mM) or Ub5 (100 mM), FIG. 10): induced a slow increase in proton leak

Molecule: Cc1ncc(COP(=O)(O)O)c(C=O)c1O [PLP, pyridoxal 5′-phosphate]
- effect on ΔΨm after GABA or Ub5 ([1]; PLP 10 mM added after GABA or Ub5): stabilized ΔΨm
- effect on ΔΨm with Ub5 ([1]; PLP 10 mM added after Ub5): acutely increased ΔΨm
- effect on GABA- or Ub5-induced respiration/leak [1]: normalized respiration to pre-GABA or Ub5 levels

Molecule: CCCCCCCCCCC1=C(C)C(=O)C(OC)=C(OC)C1=O [decylubiquinone]
- ECG upon cessation of exposure and washout ([2]; after washout): sinus rhythm normalized
- surface ECG effect during exposure ([2]; during exposure, FIG. 2): rapidly induced bradycardia that persisted throughout the duration of exposure
- proton leak (state 4 respiration) (isolated mitochondria): increased proton leak
- mitochondrial membrane potential (ΔΨ) (isolated mitochondria; determined via TPP+): decline in ΔΨ

Molecule: Picrotoxin
- effect on GABA- or Ub5-induced respiration/leak [1]: minimal effect
